Entries after “also recorded” stand apart in the source; their conditions may differ. No end group written: not given here.
Key:
RBD:ACE2 binding = type: cell-based, SARS-CoV-2 RBD; human ACE2
[1] = ref Koeninger et al., 2020; cited from earlier work
[2] = target: recombinant SARS-CoV-2 spike receptor-binding domain (rRBD); test: Surface plasmon resonance; conditions: read-out: KD (abstract, rounded)
[3] = test system: various viruses, including coronaviruses; conditions: ref Kim et al., 2018; cited from earlier work
[4] = test system: VSVG-pseudotyped virus infection of ACE2-expressing HEK 293T cells; type: cell-based
[5] = cationic, 41 amino acids; ref Sawai et al., 2001; cited from earlier work
His-tagged rRBD = type: binding, SARS-CoV-2
[6] = test system: CoV-2 spike-pseudotyped virus infection of ACE2-expressing HEK 293T cells; type: cell-based, SARS-CoV-2 (spike pseudotyped lentivirus); human cells
RBD = conditions: bilayer interferometry; ref Wang et al., 2021a; cited from earlier work

| Substance | effect on RBD:ACE2 binding (in words) (RBD:ACE2 binding) | concentration at which hemolytic activity begins [1] [µM] | Kd [2] [nM] | antiviral effect (in words) [3] | inhibition of VSVG-pseudotyped virus infection (in words) [4] | ratio of hemolytic concentration to IC50 (Hemolytic activity) [times] | charge [5] | co-precipitation with His-RBD (in words) (His-tagged rRBD) | effect on CoV-2 spike-mediated infection (in words) [6] | binding interaction with RBD (in words) (RBD) |
| --- | --- | --- | --- | --- | --- | --- | --- | --- | --- | --- |
| GIGDPVTCLKSGAICHPVFCPRRYKQIGTCGLPGTKCCKKP (disulfide (positions not given here)) [hBD-2, Human beta defensin 2] | preventing it from binding to ACE2-expressing cells; also recorded: competitively decreased RBD-ACE2 binding; also recorded: reduced RBD:ACE2 binding; also recorded: blocks spike-RBD:ACE2 binding | 70 | ~2000 | interrupt viral infection of various viruses, including coronaviruses | not VSVG-mediated infection; also recorded: no inhibition | 25 | +6 | significant binding of hBD-2 to His-RBD | dose-dependently decreased entry of CoV-2 spike-mediated infection; also recorded: inhibited viral entry into ACE2-expressing HEK 293T cells in a dose-dependent manner | – |
| LL-37 | – | – | – | – | – | – | – | – | – | strong binding interaction |

Source: PMC8808565 (iScience, 2022)
